Measured values taken from US7598244B2, “[1,2,4]triazolo[1,5,a]pyrimidin-2-ylurea derivative and use thereof” (Nippon Kayaku Kabushiki Kaisha, priority 2003, dated 2009).

System: MHC class I molecules of T1 cells (human lymphoma cell line 174×CEM.)
Experiment: Effect on expression of MHC class I from T1 cells (flow cytometry, MFI)
Format: cell-based
Conditions: 3 days culture
In short: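 EC20 is the compound level that lowers MHC class I MFI by 20% relative to compound-free cultures. Read-out was flow cytometry after FITC W6/32 staining.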

Row | Compound | EC20 (concentration necessary for suppressing 20% of the expression level of MHC class I molecules)
1 | C[C@H](NC(=O)Nc1nc2nccc(-c3cccs3)n2n1)c1ccccc1 [Example 165] | 0.3 µM
2 | CC(CCCC(=O)N1CCOCC1)NC(=O)Nc1nc2nccc(-c3cccs3)n2n1 (stereo not shown) [Example 287] | 0.77 µM
3 | COc1cccc([C@H](C)NC(=O)Nc2nc3nccc(-c4ccc(O)cc4)n3n2)c1 [Example 223, (S)-1-[7-(4-hydroxyphenyl)-[1,2,4]triazolo[1,5-a]pyrimidin-2-yl]-3-[1-(3-methoxyphenyl)ethyl]urea] | 0.014 µM
4 | COc1cc(C(C)NC(=O)Nc2nc3nccc(-c4cccc(Cl)c4)n3n2)cc(OC)c1OC (stereo not shown) [Example 305] | 0.52 µM
5 | CNC(=O)Nc1nc2nccc(-c3cccs3)n2n1 [Example 013] | 0.48 µM
6 | COCCCC[C@H](C)NC(=O)Nc1nc2nccc(-c3ccc(OC)cc3)n2n1 [Example 233] | 0.04 µM
7 | COc1cccc([C@H](C)NC(=O)Nc2nc3nccc(-c4ccc(OCC5CCCO5)cc4)n3n2)c1 (stereo partly shown) [Example 224] | 0.09 µM
8 | COc1cccc([C@H](C)NC(=O)Nc2nc3nccc(-c4cccs4)n3n2)c1 [Example 181] | 0.43 µM
9 | COCCOCOc1cccc(-c2ccnc3nc(NC(=O)N[C@@H](C)c4cccc(OC)c4)nn23)c1 [Example 213] | 0.15 µM
10 | COc1ccc(-c2ccnc3nc(NC(=O)NCc4ccccn4)nn23)cc1 [Example 083] | 0.87 µM
11 | CC(C)CCC[C@H](C)NC(=O)Nc1nc2nccc(-c3ccc(OCCN4CCOCC4)cc3)n2n1.Cl [Example 258, (S)-1-(1,5-dimethylhexyl)-3-{7-[4-(2-morpholin-4-ylethoxy)phenyl]-[1,2,4]triazolo[1,5-a]pyrimidin-2-yl}urea hydrochloride] | 0.0087 µM
12 | COc1cccc([C@H](C)NC(=O)Nc2nc3nccc(-c4cccc(OCc5cccnc5)c4)n3n2)c1 [Example 202] | 0.06 µM
13 | COc1ccc(-c2ccnc3nc(NC(=O)NC4C5CC6CC(C5)CC4C6)nn23)cc1 (stereo not shown) [Example 143] | 0.74 µM
14 | COc1ccc(-c2ccnc3nc(NC(=O)NC(C)CCCN(C)C(C)=O)nn23)cc1 (stereo not shown) [Example 283] | 0.2 µM
15 | CCOCCCC(C)NC(=O)Nc1nc2nccc(-c3ccc(OC)cc3)n2n1 (stereo not shown) [Example 276] | 0.12 µM
16 | COc1ccc(-c2ccnc3nc(NC(=O)NC(C)c4cccc(O)c4)nn23)cc1 (racemic) [Example 196] | 0.17 µM
17 | COCCOCCOCCOc1ccc(-c2ccnc3nc(NC(=O)N[C@@H](C)CCCC(C)C)nn23)cc1 [Example 263] | 0.0079 µM
18 | COc1ccc(-c2ccnc3nc(NC(=O)NC(C)c4cccc(OC(=O)OCc5ccccc5)c4)nn23)cc1 (racemic) [Example 197] | 0.21 µM
19 | O=C(Nc1nc2nccc(-c3cccc(OCc4cccnc4)c3)n2n1)NC1CCCCC1 [Example 170] | 0.25 µM
20 | COc1cccc([C@H](C)NC(=O)Nc2nc3nccc(-c4cccc(OCCCc5cccnc5)c4)n3n2)c1 [Example 210] | 0.13 µM
21 | COc1cccc([C@H](C)NC(=O)Nc2nc3nccc(-c4cccc(OCc5ccncc5)c4)n3n2)c1 [Example 203] | 0.19 µM
22 | COc1cccc([C@H](C)NC(=O)Nc2nc3nccc(-c4cccc(OCCN(C)C)c4)n3n2)c1 [Example 205] | 0.19 µM
23 | COCOc1ccc(-c2ccnc3nc(NC(=O)N[C@@H](C)c4cccc(OC)c4)nn23)cc1 [Example 226] | 0.05 µM

Row | Compound | EC20 (concentration necessary for suppressing 20% of the expression level of MHC class I molecules)
24 | CC(NC(=O)Nc1nc2nccc(-c3ccc4c(c3)OCO4)n2n1)c1ccc2c(c1)OCO2 (stereo not shown) [Example 301] | 0.64 µM
25 | COc1ccc(-c2ccnc3nc(NC(=O)N[C@H](C(=O)N(C)Cc4ccccc4)C(C)C)nn23)cc1 [Example 093] | 0.7 µM
26 | CCOC(=O)N1CCC(NC(=O)Nc2nc3nccc(-c4ccc(OC)cc4)n3n2)CC1 [Example 138] | 0.15 µM
27 | CC(C)NC(=O)Nc1nc2nccc(-c3cccc(OCc4ccccn4)c3)n2n1 [Example 185] | 0.35 µM
28 | COc1ccc(-c2ccnc3nc(NC(=O)N[C@@H](C)C4CCCCC4)nn23)cc1 [Example 218] | 0.18 µM
29 | COc1cccc([C@H](C)NC(=O)Nc2nc3nccc(-c4cccc(OCc5ccccc5)c4)n3n2)c1 [Example 199] | 0.28 µM
30 | COc1cccc([C@H](C)NC(=O)Nc2nc3nccc(-c4cccc(OCCCN(C)C)c4)n3n2)c1 [Example 221] | 0.12 µM
31 | CC(CCC(C)(C)O)NC(=O)Nc1nc2nccc(-c3ccc4c(c3)OCO4)n2n1 (stereo not shown) [Example 330] | 0.21 µM
32 | COc1ccc(-c2ccnc3nc(NC(=O)NC(C)c4cccc(OCC(C)C)c4)nn23)cc1 (racemic) [Example 230] | 0.22 µM
33 | CNC(=O)C1CCCC(NC(=O)Nc2nc3nccc(-c4ccc(OC)cc4)n3n2)C1 (stereo not shown) [Example 174] | 0.33 µM
34 | COc1cccc([C@H](C)NC(=O)Nc2nc3nccc(-c4cccc(OCCC5OCCCO5)c4)n3n2)c1 [Example 207] | 0.06 µM
35 | COc1ccc(-c2ccnc3nc(NC(=O)NCC(=O)Nc4ccccc4)nn23)cc1 [Example 144] | 0.46 µM
36 | COc1cccc([C@H](C)NC(=O)Nc2nc3nccc(-c4cccc(OCc5ccccn5)c4)n3n2)c1 [Example 201] | 0.16 µM
37 | CC(C)CCC[C@H](C)NC(=O)Nc1nc2nccc(-c3ccc(OCc4ccccc4)cc3)n2n1 [Example 245, (S)-1-[7-(4-benzyloxyphenyl)-[1,2,4]triazolo[1,5-a]pyrimidin-2-yl]-3-(1,5-dmethylhexyl)urea] | 0.18 µM
38 | CC(C)NC(=O)Nc1nc2nccc(-c3cccc(OCCc4ccccc4)c3)n2n1 [Example 180] | 0.35 µM
39 | COc1ccc(-c2ccnc3nc(NC(=O)N[C@@H](C)C(C)(C)C)nn23)cc1 [Example 217] | 0.32 µM
40 | COc1ccc(-c2ccnc3nc(NC(=O)N[C@H](C(=O)NCC4CCCCC4)C(C)C)nn23)cc1 [Example 092] | 0.2 µM
41 | COc1ccc(-c2ccnc3nc(NC(=O)NC(C)C)nn23)cc1OC [Example 086] | 0.34 µM
42 | COc1ccc(-c2ccnc3nc(NC(=O)NC(C)CCC4(C)OCCO4)nn23)cc1 (stereo not shown) [Example 323] | 0.03 µM
43 | COc1ccc(-c2ccnc3nc(NC(=O)NC45CC6CC(CC(C6)C4)C5)nn23)cc1 [Example 035] | 0.38 µM
44 | CC(C)NC(=O)Nc1nc2nccc(-c3ccc4c(c3)OCO4)n2n1 [Example 087] | 0.78 µM
45 | COc1cccc([C@H](C)NC(=O)Nc2nc3nccc(-c4cccc(Cl)c4)n3n2)c1 [Example 303] | 0.68 µM
46 | CC(CCCC(C)(C)O)NC(=O)Nc1nc2nccc(-c3cccs3)n2n1 (stereo not shown) [Example 272, 1-(5-hydroxy-1,5-dimethylhexyl)-3-(7-thiophen-2-yl[1,2,4]triazolo[1,5-a]pyrimidin-2-yl)urea] | 0.069 µM
